According to PMC6630837 (Pharmaceuticals, 2019):
“Also recorded” adds a separate entry of the source. Like-named read-outs stand apart in the source and are kept apart here.

Columns and labels:
[1] = target: acetylcholinesterase (AChE) (Electrophorus electricus, UniProt O42275); test: Acetylcholinesterase inhibition, Ellman's colorimetric assay; type: biochemical; settings: 100 µM compound; for inhibition at 100 µM: read-out: AChE inhibitory efficacy (percentage of inhibition)
Protocol: For cholinesterase inhibition tests (acetylcholinesterase (AChE, electrophorus
was kept within 1.25% cuvette concentration.
AChE and at 18.2 µM concentration for BuChE. […]

[2] = target: T1, butyrylcholinesterase (BuChE) (Equus caballus, UniProt P81908); test: biochemical; settings: for Butyrylcholinesterase inhibition, ranking in words: 100 µM compound; for inhibition at 100 µM: read-out: BuChE inhibitory efficacy (percentage of inhibition)
T1 construct: (BuChE, equine serum); from tissue; host or cells: equine serum
Protocol: Experimental procedures for cholinesterase inhibition a s sa y s. For cholinesterase inhibition tests (acetylcholinesterase (AChE, electrophorus
el ec t r ic u s) a n d b ut yr ylcholinesterase (BuChE, equine serum), the Ellman’s cholorimetric assay1 was followed, with minor modifications. DMSO
was kept within 1.25% cuvette concentration. The chromogenic agent DTNB [5,5’-dithiobis(2-nitrobenzoic acid)] was fixed at 0.975 mM
con centration; 0. 1 M phosphate buffer (pH 8. 0) was employed, T = 25 °C, and the reaction was monitored for 125 s. […]
of inhibition, the substrate concentration (acetylthiocholine iodide for AChE; S- butyr ylthiocholine iodide for BuChE) was fixed at 29 µM for
AChE and at 18.2 µM concentration for BuChE.
Lineweaver-Burk plot (or double reciprocal plot, 1/V vs . 1/ [S ]) wa s u se d for estimating both, the mode of inhibition and the inhibition constants […]
Competitive inhibition (inhibitor only bonds the free enzyme):
KKiiii = [II ]KKMM iiaaaa
M i xe d inhibition (inhibitor binds both, the free and the complexed enzyme) :
Uncompetitive (the inhibitors only binds the complexed enzyme):
N on -competitive (inhibitor binds both the free enzyme and the complexed enzyme with equal affinity) :
Table S3. […]
of the synthesized flavone analogues at 100 µ M.
C omp ou n d N o. AChE B uChE

[3] = tested on: SH-SY5Y human neuroblastoma cells; test: Neuroprotection against H2O2-induced toxicity, MTT cell viability assay; type: cell-based; settings: 50 μM compound, 100 μM H2O2, 24 h, 37 °C
Excerpt: Neuroprotective activity assays against H2O2-induced toxicity. On the basis of previously described protocols, the flavones and analogues herein synthesized were screened for their neuroprotective effects against H2O2-induced oxidative stress and neuronal damage in SH-SY5Y human neuroblastoma cells by means of a thiazolyl blue tetrazolium bromide (MTT) reduction-based cell viability assay.
Neuroprotective assays in human neuroblastoma (SH-SY5Y) cells. […] Differences were considered significant when P < 0.05.

[4] = tested on: SH-SY5Y neuroblastoma cells; test: Cytotoxic activity of compounds alone, MTT cell viability assay; settings: 24 h
Protocol: Neuroprotective assays in human neuroblastoma (SH-SY5Y) cells. SH-SY5Y cells were grown in Dulbecco’s Modified Eagle Medium (DMEM, Gibco, Life Technologies) supplemented with 10% fetal bovine serum (FBS, Biochrom GmbH) and 1% Penicillin-Streptomycin (Gibco, Life Technologies) in a humidified incubator at 37 °C, 5% CO2. For the neuroprotective activity assay, undifferentiated SGSY-5Y cells were plated onto 96-well flat-bottomed microtiter plates at a density of 1 × 10^4 cells/well in DMEM supplemented with 2% FBS and preincubated for 24 h at 37 °C, 5% CO2. Compounds (stored as 10 mM solutions in DMSO at −20 °C) were then added to achieve a final concentration of 50 μM and, after 30 min, cells were incubated in the presence or absence of 20 μM Aβ protein fragment 1-42 (Sigma-Aldrich, dissolved in DMSO and stored in 2 mM aliquots at −20 °C) or 100 μM of H2O2 (Sigma-Aldrich, dissolved to 10 mM in 0.9% NaCl aqueous solution immediately prior to the assay) overnight at 37 °C, 5% CO2. […] The following morning, 20 μL of a 5 mg/mL solution of 3-(4,5-dimethylthiazol-2-yl)-2,5-diphenyltetrazolium bromide (MTT, Sigma-Aldrich) in PBS (Gibco, Life Technologies) was added to each well and the plates were further incubated for 4 h at 37 °C, followed by the addition of DMSO (200 μL) to each well in order to dissolve the resulting formazan crystals. After 2 h incubating at 37 °C, the optical density (OD) at 540 nm (with a 620 nm reference filter) was measured in an Amersham Biosciences Biotrak II Plate Reader. The percentage of MTT reduction was determined according to Equation (1). […] Differences between experimental conditions were compared for statistical significance by one-way ANOVA followed by a Tukey’s post-test, an analysis carried out using GraphPad Prism Software (LA Jolla, CA, USA). Differences were considered significant when P < 0.05. In order to exclude direct MTT reduction, compounds were also tested in (a) the absence of cells and (b) in the absence of both cells and culture medium, using the same experimental conditions described above. (2) MTT Reduction (% of Control)=[ODsample−ODmedium/ODcell control−ODmedium] × 100 […]
Tabl e S2. Cytotoxic activity of each compound assessed in SH-SY5Y neuroblastoma cells via an MTT cell viability assay.a Comp ound Nr. MTT reduction (% control) p-va l u e vs . untreated cell control (unpai red t-t es t) […]
a Cells were incubated for 24 h at 37 °C, in the presence (50 μM) or absence of each compound.

[5] = LogD7.4 determination (octan-1-ol/phosphate buffer, LC-MS); type: physicochemical
Protocol: LogD7.4 determination. The in-silico prediction tool ALOGPS [4] was used to estimate the octanol-water partition coefficients (log P) of the compounds. […] For each category, two different ratios (volume of octan-1-ol to volume of buffer) were defined as experimental parameters (Table 2).
Equal amounts of phosphate buffer (0.1 M, pH 7.4) and octan-1-ol were mixed and shaken vigorously for 5 min to saturate the phases. The mixture was left until separation of the two phases, and the buffer was retrieved. Stock solutions of the test compounds were diluted with buffer to a concentration of 1 μM. For each compound, three determinations per octan-1-ol:buffer ratio were performed in different wells of a 96-well plate. The respective volumes of buffer-containing analyte (1 μM) were pipetted to the wells and covered by saturated octan-1-ol according to the chosen volume ratio. […] The aqueous phase was transferred to a 96-well plate for analysis by liquid chromatography-mass spectrometry (LCMS, see below).
Results are presented as the mean ± SD of three independent experiments.
LC-MS measurements. […] The system was controlled with the Agilent MassHunter Workstation Data Acquisition software (version B.01.04). The column used was an AtlantisR T3 C18 column (2.1 × 50 mm) with a 3 μm-particle size (Waters Corp., Milford, MA, USA). The mobile phase consisted of eluent A: 10 mM ammonium acetate, pH 5.0 in 95:5, H2O:MeCN; and eluent B: MeCN containing 0.1% formic acid. The flow rate was maintained at 0.6 mL/min. […] MS parameters such as fragmentor voltage, collision energy, and polarity were optimized individually for each drug, and the molecular ion was followed for each compound in the multiple reaction monitoring mode. The concentrations of the analytes were quantified by the Agilent Mass Hunter Quantitative Analysis software (version B.01.04).

[6] = 50 μM compound alone, 37 °C, 0.5% DMSO, SH-SY5Y
[7] = octan-1-ol/phosphate buffer, pH 7.4, octan-1-ol/phosphate buffer pH 7.4, 25 °C, read-out: Log D7.4 (partition coefficient at pH 7.4)
[8] = octan-1-ol/phosphate buffer pH 7.4, 25 °C

T1 sequence (P81908 whole entry): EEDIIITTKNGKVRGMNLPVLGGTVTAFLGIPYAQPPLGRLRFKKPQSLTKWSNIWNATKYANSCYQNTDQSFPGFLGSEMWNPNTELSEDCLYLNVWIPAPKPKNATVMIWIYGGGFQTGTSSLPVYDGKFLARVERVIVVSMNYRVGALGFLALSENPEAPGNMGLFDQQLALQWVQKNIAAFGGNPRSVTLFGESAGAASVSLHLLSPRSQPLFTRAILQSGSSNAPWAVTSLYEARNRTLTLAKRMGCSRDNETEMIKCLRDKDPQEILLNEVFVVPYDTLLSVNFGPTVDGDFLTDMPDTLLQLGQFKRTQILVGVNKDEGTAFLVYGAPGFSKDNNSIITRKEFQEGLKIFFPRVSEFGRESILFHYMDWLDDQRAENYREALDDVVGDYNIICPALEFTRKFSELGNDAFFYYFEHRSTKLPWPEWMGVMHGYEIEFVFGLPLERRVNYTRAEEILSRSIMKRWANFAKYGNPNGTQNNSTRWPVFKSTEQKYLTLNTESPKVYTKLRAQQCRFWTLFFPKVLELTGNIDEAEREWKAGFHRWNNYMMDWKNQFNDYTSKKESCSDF
Chain of acetylcholinesterase (AChE) (O42275 24-633): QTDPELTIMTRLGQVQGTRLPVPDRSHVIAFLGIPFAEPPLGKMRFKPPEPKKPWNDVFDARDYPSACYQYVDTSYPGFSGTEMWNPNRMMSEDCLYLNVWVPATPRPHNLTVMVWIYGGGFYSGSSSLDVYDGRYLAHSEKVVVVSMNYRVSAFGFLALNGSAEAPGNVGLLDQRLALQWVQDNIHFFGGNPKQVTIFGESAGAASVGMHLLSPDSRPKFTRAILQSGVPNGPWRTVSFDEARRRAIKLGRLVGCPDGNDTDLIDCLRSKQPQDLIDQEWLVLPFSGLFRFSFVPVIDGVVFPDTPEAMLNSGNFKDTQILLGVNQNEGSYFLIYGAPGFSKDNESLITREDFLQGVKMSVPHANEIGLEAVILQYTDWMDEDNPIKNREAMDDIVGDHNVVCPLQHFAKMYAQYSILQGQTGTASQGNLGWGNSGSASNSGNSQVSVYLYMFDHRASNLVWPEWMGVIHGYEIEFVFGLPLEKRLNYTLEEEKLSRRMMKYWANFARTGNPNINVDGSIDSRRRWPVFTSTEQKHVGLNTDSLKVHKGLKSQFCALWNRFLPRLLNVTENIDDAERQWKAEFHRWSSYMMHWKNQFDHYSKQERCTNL

Row | Compound | Neuroprotective effect against H2O2-induced toxicity (MTT cell viability) [3] | MTT reduction (% control) [4, 6] | logD [5, 7] | also measured
1 | CCC(C)c1cc(=O)c2c(O)cc(O)cc2o1 (stereo not shown) [Compound 6, 5,7-Dihydroxy-2-(1-methylpropyl)-4H-chromen-4-one] | the increase was not significant | 109.9 ± 18.7% | > 2.5 | AChE inhibitory efficacy (percentage of inhibition) [1]: n.i .; Butyrylcholinesterase inhibition, ranking in words [2]: the most promising one; Mode of inhibition ([2]; BuChE, Lineweaver-Burk plot): Mixed inhibition; Ki ([2]; BuChE, Lineweaver-Burk plot, read-out: Kia (inhibition constant)): 44 ± 17 µM; Ki ([2]; BuChE, Lineweaver-Burk plot, read-out: Kib (inhibition constant)): 36 ± 8 µM; inhibition at 100 µM [2]: 46%
2 | O=c1cc(-c2ccncc2)oc2cc(O)cc(O)c12 [Compound 12, 5,7-Dihydroxy-2-(pyridin-4-yl)-4H-chromen-4-one] | contrarily | 233.7 ± 15.7% |  | 
3 | O=c1cc(-c2ccccc2)oc2cc(O)cc(O)c12 [Compound 1, chrysin, reference compound] | absence of significant effects | 96.2 ± 26.9% |  | inhibition at 100 µM [1]: 18%; Ki [2]: 32 ± 4 µM; Butyrylcholinesterase inhibition, ranking in words [2]: the most active butyrylcholinesterase inhibitor; Mode of inhibition ([2]; BuChE, Lineweaver-Burk plot): Non-* co mp etit iv e in hi bit io n; inhibition at 100 µM [2]: 64%; logD ([5]; octan-1-ol/phosphate buffer pH 7.4, 25 °C, read-out: Log D7.4 (partition coefficient at pH 7.4)): 3.6 ± 0.4
4 | 2-(Furan-2-yl)-8-(β-D-glucopyranosyl)-5,7-dihydroxy-4H-chromen-4-one [Compound 21] | able to rescue cells from oxidative damage caused by H2O2; also recorded: able to produce a significant improvement in cell viability | 131.5 ± 11.0% |  | Log D7.4 (partition coefficient at pH 7.4) [5, 8]: −0.2 ± 0.1
5 | O=c1cc(C2CCC2)oc2cc(O)cc(O)c12 [Compound 5, 2-Cyclobutyl-5,7-dihydroxy-4H-chromen-4-one] | the increase was not significant | 184.6 ± 30.2% | > 2.5 | 
6 | O=c1cc(-c2ccco2)oc2cc(O)cc(O)c12 [Compound 11, 2-(Furan-2-yl)-5,7-dihydroxy-4H-chromen-4-one] | contrarily | 129.7 ± 9.06% | > 2.5 | 
7 | O=c1ccoc2cc(O)cc(O)c12 [Compound 13, 5,7-dihydroxychromen-4-one, reference compound] | no significant differences | 71.2 ± 48.1% | 2.4 ± 0.1 | 
8 | CN(C)c1ccc(-c2cc(=O)c3c(O)cc(O)cc3o2)cc1 [Compound 10, 4′-Dimethylamino-5,7-dihydroxyflavone] | not significantly active | 191.5 ± 22.9% | 3.4 ± 0.2 | 
9 | O=c1cc(-c2ccc(O)cc2)oc2c([C@@H]3O[C@H](CO)[C@@H](O)[C@H](O)[C@H]3O)c(O)cc(O)c12 [Compound 17, 8-(β-D-Glucopyranosyl)-5,7,4′-trihydroxyflavone] | able to rescue cells from oxidative damage caused by H2O2; also recorded: able to fully recover cell viability |  |  | MTT reduction (% control) ([4]; human, 50 μM): 85.0 ± 38.5%; logD ([5]; pH 7.4, Log D7.4 (partition coefficient at pH 7.4)): 0.1 ± 0.1
10 | O=c1cc(-c2ccc(N3CCCC3)cc2)oc2cc(O)cc(O)c12 [Compound 9, 5,7-Dihydroxy-4′-(pyrrolidin-1-yl)flavone] | able to produce statistically significant differences when compared to H2O2 controls | 163.6% ± 72.6 |  | inhibition at 100 µM [1]: 27%; inhibition at 100 µM [2]: 32%
11 | 8-(β-D-Glucopyranosyl)-5,7-dihydroxy-4′-(pyrrolidin-1-yl)flavone [Compound 20] |  | 219.9 ± 16.9% |  | Log D7.4 (partition coefficient at pH 7.4) [5, 8]: 1.8 ± 0.2
